{
  "source": "patent US20230181535A1",
  "about": "“UBIQUITIN-LIGASE INHIBITORS FOR THE TREATMENT OF CANCER” (FUNDACIÓN PROFESOR NOVOA SANTOS, priority 2020, published 2023)",
  "key": {"[1]": {"system": "ubiquitination in 293T cells", "test": "Ubiquitination assay in 293T cells transfected with v-Src and HA-ubiquitin (Hakai not overexpressed)", "format": "cell-based", "settings": "vs DMSO", "method": "Six hours after transfection cells were treated with indicated concentrations of Hakin-1, Hakin-5 or the rest of the compounds tested for 36 h. Whole cell extracts were obtained in lysis buffer (20 mM Tris-HCl pH 7.5, 150 mM NaCl and 1% Triton X-100) containing 10 μg/ml leupeptin, 10 μg/ml aprotinin and 1 mM phenylmethanesulphonyl fluoride (PMSF), supplemented with 10 mM N-ethylmaleimide. Cells were harvested and subjected to western blotting using anti-HA antibody to detect ubiquitination."}, "[2]": {"system": "normal epithelial MDCK cell line", "test": "MTT cell viability assay, MDCK", "format": "cell-based", "settings": "compared with Hakai-MDCK", "method": "(§1) For cytotoxicity assays, 1×10^4 cells were seeded per well into a 96-well plate. After 24 h cells were treated with the indicated inhibitors for 72 h and a MTT colorimetric cell viability assay was performed following manufacturer's instructions (Sigma Aldrich, St Louis, Mo.). Absorbance was measured at 570 and 630 nm using a Multiskan Plus Reader (Nanoquant Infinite M200 Tecan Trading AG, Switzerland). Dose-response curves were designed with Graph Pad Prism Software and the half-maximal inhibitory concentration (IC50) values were calculated. Represented data are the mean±SEM of at least three independent experiments with six replicates per condition."}, "[3]": {"system": "Hakai-MDCK cell lines (clone 4 and clone 11)", "test": "MTT cell viability assay, Hakai-MDCK", "format": "cell-based", "settings": "Hakai-MDCK clone 4 and clone 11, compared with MDCK", "method": "as §1"}, "[4]": {"system": "HT-29 cells", "test": "Phase-contrast cell phenotype, HT-29", "format": "cell-based, human", "method": "MDCK, HEK293T, HepG2, MCF7 and ACHN cells were cultured in Dulbecco's Modified Eagles Medium (DMEM). MDCK stably expressing Hakai cells (Hakai-MDCK) were previously reported and were growth in DMEM with G418 (800 μg/ml). […] LoVo and PC-3 cells were cultured in F-12K Medium (Kaighn's Modification of Ham's F-12 Medium) and HT-29 and HCT116 cells in McCoy's 5a Medium Modified. 5637 cells were cultured in RPMI medium. All culture media were supplemented with 1% penicillin/streptomycin and 10% of heat-inactivated fetal bovine serum (FBS) at 37° C. in a humidified incubator with 5% CO2. Cells were monthly tested for mycoplasma contamination and used only for 1-3 months after defrosted. LoVo and HT29 cells were authenticated with the StemElite ID system (Promega). For phase-contrast images, culture cells were photographed with a Nikon Eclipse-TI microscope."}, "[5]": {"system": "LoVo cells", "test": "Immunofluorescence of E-cadherin, LoVo", "format": "cell-based", "settings": "48 h, vs DMSO", "method": "For western blot analysis, cells were treated with the indicated inhibitors for 48 h and the whole cell extracts were obtained as described previously. Twenty micrograms of lysates were resolved on a 10% polyacrilamide SDS-PAGE followed by western blot analysis performed as previously described. For immunofluorescence assays cells were grown for 24 h on glass coverslips and treated with the indicated inhibitors for 48 h. Cells were fixed with 4% PFA for 15 min, permeabilized with 0.5% […] and incubated with E-cadherin antibody for 2 h. Coverslips were incubated with fluorescein-tagged secondary antibody (Dakopatts, Sweden) for […]. Finally coverslips were mounted with ProLong Gold antifade reagent (LifeTech, UK) and images were taken in epifluorescence microscope (Olympus) using 40× objective. […] One set of SIM Synthetic Focus images were taken in the DAPI channel for Hoechst 33342 staining, and another set of images were taken in the FITC channel for anti-E-cadherin-AlexaFluor488 labeling and analysed by Structured Illumination Microscopy (SIM™) platform to image the cells and Vala's CyteSeer® Cell-Cell Junction Algorithm to quantify the degree of expression and intracellular location of E-cadherin Vala's CyteSeer® Software can also measure relative DNA content by analyzing Total Integrated Intensity (TII) of the Nuclear Image (Ni) on the Nuclear Mask (Nm). […]"}, "[6]": {"system": "HT29 cells", "test": "BrdU proliferation assay, HT29", "format": "cell-based, human", "settings": "48 h", "method": "(§2) For BrdU assays, 1×10^4 of indicated cells were plated per well into a 96-well plate. After 24 h, cells were treated with the indicated inhibitors for 48 h. Three independent experiments were plated with six replicates per each condition. Cells were treated with […] BrdU for 2 h. BrdU incorporation into newly synthesized DNA was measured using a cell proliferation colorimetric immunoassay kit according to the manufacturer's instructions (Roche, Switzerland). Results are expressed as mean±S.D. Results are represented as percentage of positive cells (mean±S.D) of three independent experiments."}, "[7]": {"system": "liver cancer HepG2 cells", "test": "BrdU proliferation assay, HepG2", "format": "cell-based, human", "settings": "48 h", "method": "as §2"}, "[8]": {"system": "LoVo cells", "test": "Invasion assay, LoVo", "format": "cell-based", "settings": "treated 48 h", "method": "(§3) For invasion assays, cells were treated with Hakin-1 or DMSO as vehicle for 48 h using 1% FBS during the last 24 hours. 3×10^5 MDCK, MDCK-Hakai or LoVo cells were seeded in a cell invasion chamber (Cell invasion assay kit, Chemicon International) containing medium with 2% FBS. After 72 hours for MDCK and MDCK-Hakai Invasive and 16 h for LoVo cells, invasive cells invaded that reach the lower chamber containing 30% FBS were fixed and stained with crystal violet (Sigma Aldrich, St Louis, Mo.) following the manufacturer's specifications. For migration assays, HT29 cells were cultured with Hakin-1 or DMSO as vehicle for 48 h, using medium without serum the last 24 h. In the cell migration chamber were seeded 3×10^5 HT29 cells (Cell migration kit, Millipore, Bedford, Mass.) containing medium without serum. After 16 h, migrated cells in the lower chamber containing serum with 30% FBS were stained with crystal violet and counted following the manufacturer's specifications. For both invasion and migration assays cells were counted in five fields photographed with an Olympus microscope using a 20× objective, experiments were performed in triplicates for each condition and the assays were repeated at least three times. Results are expressed as mean±SD."}, "[9]": {"system": "HT29 cells", "test": "Migration assay, HT29", "format": "cell-based, human", "settings": "HT-29; treated 48 h", "method": "as §3"}},
  "data": [
    {"molecule": "O=C(O)c1ccc(-n2nnnc2SCC(=O)c2ccc([N+](=O)[O-])cc2)cc1", "note": "[Hakin-1, 4-(5-[2-(4-nitrophenyl)-2-oxoethyl]thiol-1H-tetrazol-1-yl)benzoic acid]", "values": [
      {"measurement": "ubiquitination when Hakai was not overexpressed", "setting": "[1]", "result": "did not affect ubiquitination"},
      {"measurement": "sensitivity to treatment (cell viability, MTT)", "setting": "[2]", "result": "more resistant"},
      {"measurement": "sensitivity to treatment (cell viability, MTT)", "setting": "[3]", "result": "more sensitive"},
      {"measurement": "cell phenotype by phase contrast", "setting": "[4]", "result": "modestly induce an epithelial phenotype"},
      {"measurement": "E-cadherin levels at cell-cell contacts (immunofluorescence)", "setting": "[5]", "result": "significant increase E-cadherin levels at cell-cell contacts"},
      {"measurement": "cell proliferation (BrdU)", "setting": "[6]", "result": "reduced cell proliferation"},
      {"measurement": "cell proliferation (BrdU)", "setting": "[7]", "result": "inhibited cell proliferation"},
      {"measurement": "cell invasion", "setting": "[8]", "result": "strongly reduced cell invasion"},
      {"measurement": "cell migration", "setting": "[9]", "result": "important reduction of cell migration"}
    ]}
  ]
}
